Patent US6800418B2, “Fluorine-containing photosensitive polymer having hydrate structure and resist composition comprising the same” (Samsung Electronics, priority 2001, dated 2004)

assay: Measurement of pKa Value; format: physicochemical; conditions: pKa value of monomers, measured to identify whether the structure is dissolvable in developers
Description: To determine whether a repeating monomer unit of a polymer according to the present invention has a structure dissolvable in common developers, pKa value was measured.
The pKa value was measured for a variety of monomers having different structures to identify whether hydrate is dissolvable in developers.

Structure (SMILES) | pKa
C=Cc1ccc(O)cc1 [MONOMER 2, vinylphenol] | 9.97
C=C(C)C(=O)O [MONOMER 3] | 4.58
C=Cc1ccc(C(O)(C(F)(F)F)C(F)(F)F)cc1 [MONOMER 5] | 8.96

Other lines, results leading:

pKa | Structure (SMILES)
9.67 | OC(CC1CC2C=CC1C2)(C(F)(F)F)C(F)(F)F (centres unmarked) [MONOMER 4]
8.33 | OC(C1CC2C=CC1C2)C(F)(F)C(O)(O)C(F)(F)F (centres unmarked) [MONOMER 6]
